Results as given in ChEMBL document CHEMBL1126372, “Synthesis of L-chiro-inositol 1,4,6-trisphosphorothioate, a potent and selective inhibitor of myo-inositol 1,4,5-trisphosphate 5-phosphatase” (Bioorg Med Chem Lett, 1992).
pEC50, pKi: −log10 of the molar value. Activity calls are given as the source filed them.

How the values were obtained:
[1] = Tested for the ability to inhibit dephosphorylation of [3H]Ins(1,4,5)P3 of human erythrocyte membrane Ins(1,4,5)P3 5- phosphatase; format: functional
[2] = Effective concentration required to mobilize [Ca2+] from intracellular stores using electrically permeabilised human neuroblastoma cells; format: functional, cell-based
[3] = Inhibition of [3H]Ins(1,4,5)P3 phosphorylation by crude rat brain Ins(1,4,5)P3 3-kinase at 250 uM (Inactive); format: functional

Row | SMILES | pKi [1] | pEC50 [2] | inhibition [3]
1 | OC1C(O)C(OP(O)(O)=S)C(OP(O)(O)=S)C(O)C1OP(O)(O)=S (stereo in doubt) | 5.77 |  | 
2 | O=P(O)(O)O[C@@H]1[C@H](O)[C@H](O)[C@@H](OP(=O)(O)O)[C@H](OP(=O)(O)O)[C@H]1O [INS(1,4,5)P3] | 4.36 | 6.92 | inactive
3 | OC1C(O)C(OP(O)(O)=S)C(OP(O)(O)=S)C(O)C1OP(O)(O)=S (stereo in doubt; 8) [listing 1 of 2 here] | 6.52 |  | 
4 | O=P(O)(O)OC1C(O)C(O)C(OP(=O)(O)O)C(OP(O)(O)=S)C1O (stereo in doubt; 4) | 3.01 |  | 
5 | OC1C(O)C(OP(O)(O)=S)C(OP(O)(O)=S)C(O)C1OP(O)(O)=S (stereo in doubt; 2) | 3.46 |  | 
6 | OC1C(O)C(OP(O)(O)=S)C(OP(O)(O)=S)C(O)C1OP(O)(O)=S (stereo in doubt; 8) [listing 2 of 2 here] |  |  | inactive
7 | O=P(O)(O)OC1C(O)C(O)C(OP(=O)(O)O)C(OP(O)(O)=S)C1O (stereo in doubt) | 5.17 |  | 
